The source made the active and inactive calls.
Columns and labels:
[1] = viability of HCT116 lacking mutant beta-catenin – cell-based, human colon tumor, dose response (AID 1045); type: functional;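 further: HCT116 colon tumor cells with beta catenin knocked out; cells exposed to compound for 60 hours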
[2] = viability of PTEN-deleted HCT116 cells – cell-based, HCT116 PTEN knockout, dose response (AID 1047); type: functional;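 further: HCT116 colon tumor cells with PTEN knocked out; cells exposed to compound for 60 hours before readout; potency for loss of cell viability measured by luminescence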
Beta-galactosidase = Beta-galactosidase (Escherichia coli, UniProt Q8VNN2); type: functional
[3] = target: T1, Kappa-type opioid receptor (Homo sapiens, UniProt P41145); type: functional
T1 sequence (P41145 whole entry): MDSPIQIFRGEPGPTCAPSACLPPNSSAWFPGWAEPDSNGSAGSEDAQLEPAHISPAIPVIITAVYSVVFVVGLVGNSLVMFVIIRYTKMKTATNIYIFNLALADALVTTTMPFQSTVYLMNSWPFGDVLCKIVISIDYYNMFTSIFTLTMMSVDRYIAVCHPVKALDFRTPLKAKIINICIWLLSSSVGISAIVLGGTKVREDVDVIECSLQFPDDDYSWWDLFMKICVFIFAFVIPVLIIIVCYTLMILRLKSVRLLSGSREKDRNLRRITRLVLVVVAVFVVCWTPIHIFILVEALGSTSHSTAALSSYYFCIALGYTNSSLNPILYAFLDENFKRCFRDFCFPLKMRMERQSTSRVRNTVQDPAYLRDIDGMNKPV

[4] = target: T1, Kappa-type opioid receptor; type: functional; remark: listed apart in the source
[5] = Fluorescence-based cell-based high throughput dose response assay for inhibitors of the interaction of nucleotide-binding oligomerization domain containing 2 (NOD2) and the receptor-interacting serine-threonine kinase 2 (RIPK2).; type: functional; details: Homo sapiens
[6] = target: Glutathione S-transferase omega-1 (Homo sapiens, UniProt P78417); experiment: IC50 of human GSTO1 blockade by gel ABPP – biochemical, SE-Rh probe, in-gel fluorescence, powder samples, set 2, late-stage follow-up (AID 463142); type: functional
Chain of Glutathione S-transferase omega-1 (P78417 whole entry): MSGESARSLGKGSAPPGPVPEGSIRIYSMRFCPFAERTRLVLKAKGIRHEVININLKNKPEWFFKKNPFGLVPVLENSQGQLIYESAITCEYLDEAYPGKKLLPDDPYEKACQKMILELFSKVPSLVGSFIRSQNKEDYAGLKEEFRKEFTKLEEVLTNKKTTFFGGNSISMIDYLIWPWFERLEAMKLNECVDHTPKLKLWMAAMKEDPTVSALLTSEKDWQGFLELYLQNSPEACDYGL

ORF 73 = ORF 73 (Human herpesvirus 8, UniProt O40947); experiment: KSHV LANA DNA-binding disruption – biochemical, fluorescence polarization, cherry-picked samples, dose response (AID 504725); design: species or system Human gammaherpesvirus 8;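 further: fluorescence polarization of a labeled DNA duplex reporting LANA DNA binding; potency is for inhibitors that block LANA binding to the DNA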
Chain of ORF 73 (O40947 whole entry): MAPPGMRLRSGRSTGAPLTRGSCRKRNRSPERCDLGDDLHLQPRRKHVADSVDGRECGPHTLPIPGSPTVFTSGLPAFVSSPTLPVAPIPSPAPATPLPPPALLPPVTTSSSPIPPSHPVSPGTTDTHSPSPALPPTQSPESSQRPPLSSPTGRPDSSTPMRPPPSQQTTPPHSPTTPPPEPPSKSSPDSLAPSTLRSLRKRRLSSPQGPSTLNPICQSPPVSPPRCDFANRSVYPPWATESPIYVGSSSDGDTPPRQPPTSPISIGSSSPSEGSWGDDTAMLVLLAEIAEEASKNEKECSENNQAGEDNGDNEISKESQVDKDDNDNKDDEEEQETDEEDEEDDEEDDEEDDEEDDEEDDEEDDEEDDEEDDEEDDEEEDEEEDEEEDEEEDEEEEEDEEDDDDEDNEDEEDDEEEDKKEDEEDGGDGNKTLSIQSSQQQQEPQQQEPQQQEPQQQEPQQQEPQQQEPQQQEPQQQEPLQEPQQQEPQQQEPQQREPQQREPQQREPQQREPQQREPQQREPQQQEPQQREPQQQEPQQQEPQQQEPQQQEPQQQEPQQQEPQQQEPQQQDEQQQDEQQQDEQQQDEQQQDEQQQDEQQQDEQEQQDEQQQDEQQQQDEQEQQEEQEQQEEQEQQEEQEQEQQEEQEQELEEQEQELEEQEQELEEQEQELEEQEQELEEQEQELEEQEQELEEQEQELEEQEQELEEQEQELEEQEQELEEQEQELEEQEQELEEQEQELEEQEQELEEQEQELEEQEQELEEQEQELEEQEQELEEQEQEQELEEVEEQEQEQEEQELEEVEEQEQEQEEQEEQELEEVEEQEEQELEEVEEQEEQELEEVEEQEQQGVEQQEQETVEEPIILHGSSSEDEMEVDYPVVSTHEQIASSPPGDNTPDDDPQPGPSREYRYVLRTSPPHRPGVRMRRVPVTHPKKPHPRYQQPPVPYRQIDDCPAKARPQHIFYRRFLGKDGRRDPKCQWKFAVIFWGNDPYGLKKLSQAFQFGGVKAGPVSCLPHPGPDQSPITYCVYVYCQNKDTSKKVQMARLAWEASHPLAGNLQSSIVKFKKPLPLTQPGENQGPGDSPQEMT

[7] = target: Sphingosine 1-phosphate receptor 4 (Homo sapiens, UniProt O95977); experiment: potency of S1P4 activators – cell-based, fluorescence, synthesized compounds, late-stage follow-up (AID 463107); type: functional
Chain of Sphingosine 1-phosphate receptor 4 (O95977 whole entry): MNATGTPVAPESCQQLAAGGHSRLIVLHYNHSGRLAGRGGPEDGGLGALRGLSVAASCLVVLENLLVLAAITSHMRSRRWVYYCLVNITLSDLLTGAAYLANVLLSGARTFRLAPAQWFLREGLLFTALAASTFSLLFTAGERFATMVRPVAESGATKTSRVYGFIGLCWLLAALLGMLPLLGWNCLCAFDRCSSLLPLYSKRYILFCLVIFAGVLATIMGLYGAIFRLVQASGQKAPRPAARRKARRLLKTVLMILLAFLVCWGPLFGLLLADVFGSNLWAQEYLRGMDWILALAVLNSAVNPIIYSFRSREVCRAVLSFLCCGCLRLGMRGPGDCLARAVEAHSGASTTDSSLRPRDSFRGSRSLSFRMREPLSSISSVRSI

[8] = target: Voltage-dependent T-type calcium channel subunit alpha-1H (Homo sapiens, UniProt O95180); experiment: human CACNA1H calcium influx blockade – cell-based, synthetic library set 1, calcium flux (AID 493022); type: functional
Chain of Voltage-dependent T-type calcium channel subunit alpha-1H (O95180 whole entry): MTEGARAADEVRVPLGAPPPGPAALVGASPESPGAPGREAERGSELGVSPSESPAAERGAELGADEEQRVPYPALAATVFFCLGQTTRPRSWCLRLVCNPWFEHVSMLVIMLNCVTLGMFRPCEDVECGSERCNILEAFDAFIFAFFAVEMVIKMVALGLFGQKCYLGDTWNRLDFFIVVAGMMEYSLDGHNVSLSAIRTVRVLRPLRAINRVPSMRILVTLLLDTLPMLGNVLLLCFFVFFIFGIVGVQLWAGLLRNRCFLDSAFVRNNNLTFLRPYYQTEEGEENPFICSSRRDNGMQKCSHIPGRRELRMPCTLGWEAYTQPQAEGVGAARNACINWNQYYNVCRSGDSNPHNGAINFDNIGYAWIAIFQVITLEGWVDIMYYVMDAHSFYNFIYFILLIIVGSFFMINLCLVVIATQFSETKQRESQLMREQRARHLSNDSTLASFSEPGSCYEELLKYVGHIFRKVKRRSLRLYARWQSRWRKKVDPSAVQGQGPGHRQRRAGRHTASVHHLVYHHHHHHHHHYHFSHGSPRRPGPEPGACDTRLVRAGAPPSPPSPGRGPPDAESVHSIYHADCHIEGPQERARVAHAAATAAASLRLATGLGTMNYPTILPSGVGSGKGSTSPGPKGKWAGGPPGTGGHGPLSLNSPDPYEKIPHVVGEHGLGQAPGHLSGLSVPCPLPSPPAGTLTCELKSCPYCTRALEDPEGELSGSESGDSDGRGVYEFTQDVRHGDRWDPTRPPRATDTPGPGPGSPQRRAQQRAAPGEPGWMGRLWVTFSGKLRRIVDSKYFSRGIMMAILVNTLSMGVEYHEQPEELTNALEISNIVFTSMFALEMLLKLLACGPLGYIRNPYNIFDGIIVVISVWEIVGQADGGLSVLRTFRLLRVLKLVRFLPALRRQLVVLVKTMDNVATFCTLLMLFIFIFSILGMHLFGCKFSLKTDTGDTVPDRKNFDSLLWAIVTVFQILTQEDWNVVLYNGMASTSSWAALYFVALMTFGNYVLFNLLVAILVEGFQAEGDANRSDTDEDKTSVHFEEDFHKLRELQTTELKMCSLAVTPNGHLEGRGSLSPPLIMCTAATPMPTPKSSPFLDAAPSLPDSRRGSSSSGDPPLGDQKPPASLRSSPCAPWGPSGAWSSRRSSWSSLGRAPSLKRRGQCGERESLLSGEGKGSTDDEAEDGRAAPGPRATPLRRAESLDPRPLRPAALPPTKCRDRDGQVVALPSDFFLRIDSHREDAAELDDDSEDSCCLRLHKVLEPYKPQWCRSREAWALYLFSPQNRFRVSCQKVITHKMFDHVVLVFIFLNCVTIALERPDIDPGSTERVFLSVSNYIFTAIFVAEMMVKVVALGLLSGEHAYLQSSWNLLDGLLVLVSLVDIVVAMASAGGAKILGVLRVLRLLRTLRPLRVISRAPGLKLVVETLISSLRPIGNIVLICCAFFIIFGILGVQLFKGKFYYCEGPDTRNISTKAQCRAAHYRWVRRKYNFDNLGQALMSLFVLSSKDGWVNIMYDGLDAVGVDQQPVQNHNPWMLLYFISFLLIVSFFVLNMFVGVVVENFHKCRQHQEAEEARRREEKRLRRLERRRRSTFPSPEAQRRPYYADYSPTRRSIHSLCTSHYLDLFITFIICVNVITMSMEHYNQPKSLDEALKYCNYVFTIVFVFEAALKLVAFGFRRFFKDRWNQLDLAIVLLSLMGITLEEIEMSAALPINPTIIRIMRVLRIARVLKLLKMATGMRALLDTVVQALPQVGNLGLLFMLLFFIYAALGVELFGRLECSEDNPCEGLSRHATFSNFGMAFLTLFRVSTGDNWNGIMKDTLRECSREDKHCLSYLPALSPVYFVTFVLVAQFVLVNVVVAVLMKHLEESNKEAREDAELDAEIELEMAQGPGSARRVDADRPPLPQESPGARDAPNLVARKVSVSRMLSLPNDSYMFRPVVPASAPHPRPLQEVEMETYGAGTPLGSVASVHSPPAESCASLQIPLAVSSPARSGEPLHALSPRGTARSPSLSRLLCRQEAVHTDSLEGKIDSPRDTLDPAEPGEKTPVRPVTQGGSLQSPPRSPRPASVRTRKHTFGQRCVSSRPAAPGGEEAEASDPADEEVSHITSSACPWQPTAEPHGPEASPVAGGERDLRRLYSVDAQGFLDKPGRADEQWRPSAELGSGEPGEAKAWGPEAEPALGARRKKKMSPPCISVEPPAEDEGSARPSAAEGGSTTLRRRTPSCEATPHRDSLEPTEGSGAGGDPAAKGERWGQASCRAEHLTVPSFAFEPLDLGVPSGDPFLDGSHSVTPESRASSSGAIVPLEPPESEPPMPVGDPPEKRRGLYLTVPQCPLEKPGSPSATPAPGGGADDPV

[9] = target: DNA dC->dU-editing enzyme APOBEC-3A (Homo sapiens, UniProt P31941); experiment: A3A deaminase inhibition for selectivity – biochemical, dose response (AID 504722); type: functional
Chain of DNA dC->dU-editing enzyme APOBEC-3A (P31941 whole entry): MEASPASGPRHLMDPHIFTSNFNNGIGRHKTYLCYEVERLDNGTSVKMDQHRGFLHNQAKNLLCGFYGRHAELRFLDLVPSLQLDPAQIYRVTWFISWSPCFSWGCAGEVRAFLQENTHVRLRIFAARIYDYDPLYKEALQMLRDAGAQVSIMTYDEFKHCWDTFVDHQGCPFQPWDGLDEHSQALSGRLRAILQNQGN

[10] = target: DNA dC->dU-editing enzyme APOBEC-3G (Homo sapiens, UniProt Q9HC16); experiment: Dose Response confirmation of small molecule APOBEC3G DNA Deaminase Inhibitors via a fluorescence-based single-stranded DNA deaminase assay. [Related pubchem assays (depositor defined):AID493012, AID493028]; type: functional
Chain of DNA dC->dU-editing enzyme APOBEC-3G (Q9HC16 whole entry): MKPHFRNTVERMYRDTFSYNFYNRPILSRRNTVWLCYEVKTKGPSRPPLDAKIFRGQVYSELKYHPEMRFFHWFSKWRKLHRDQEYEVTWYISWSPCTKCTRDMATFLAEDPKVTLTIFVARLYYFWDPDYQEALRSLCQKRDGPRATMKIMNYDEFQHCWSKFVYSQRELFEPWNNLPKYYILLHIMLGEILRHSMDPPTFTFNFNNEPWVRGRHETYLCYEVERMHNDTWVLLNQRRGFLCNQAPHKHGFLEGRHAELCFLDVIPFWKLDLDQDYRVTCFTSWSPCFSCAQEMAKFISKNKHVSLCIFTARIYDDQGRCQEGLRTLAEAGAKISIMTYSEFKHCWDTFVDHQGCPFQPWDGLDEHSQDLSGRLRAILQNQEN

cells = type: functional
[11] = THP-1 cell cytotoxicity, dose response, cytotoxicity control for non-replicating M. tuberculosis project (AID 489025); type: functional
[12] = HepG2 cell cytotoxicity, dose response, cytotoxicity control for non-replicating M. tuberculosis project (AID 489018); type: functional; details: Mycobacterium tuberculosis
[13] = Trypanosoma cruzi growth suppression in host cells – NIH3T3 host cells, beta-gal luminescence, confirmation (AID 2044); type: functional, cell-based;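 further: intracellular parasites grown in NIH/3T3 mouse fibroblasts as host cells; luminescent beta-galactosidase reporter signal from transgenic T. cruzi replicating inside host cells; inhibitors lower the luminescence signal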
INS1 = experiment: INS-1E survival protection against cytokine death – cell-based, luminescence, retest, dose response (AID 449756); type: functional; details: Rattus norvegicus;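 further: cell death triggered by IL-1 beta plus TNF-alpha plus IFN-gamma mixture; protective hits raise ATP signal compared with cytokine alone wells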
[14] = Vero E6 cell cytotoxicity, dose response, cytotoxicity control for non-replicating M. tuberculosis project, secondary assay (AID 492998); type: functional, VeroE6; details: Vero C1008
[15] = NIH3T3 cell viability loss – ATP luminescence, mouse fibroblasts, counter-screen, dose response (AID 2010); type: functional, cell-based;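 further: cells exposed to compound for about 90 hours before reading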

Q: What does the source list for `N#CC(C#N)=C1C=CC=CN1/C(=C\c1ccco1)C(=O)c1ccc(-c2ccccc2)cc1`?
A: EC50 [1]: 4.81 µM (active); EC50 [2]: 4.69 µM (active); EC50 (Beta-galactosidase): > 31.5 µM (inactive); IC50 [3]: > 32 µM; IC50 [4]: 16.1 µM (active); IC50 [5]: 0.945 µM (active)

Q: Which IC50 [6] does the source give for `C#CCN(CCCN(C(=O)CCl)c1ccc([N+](=O)[O-])cc1)C(=O)C(F)(F)F` here?
A: 0.023 µM (active)

Q: Which AC50 (ORF 73) does the source give for `O=C(COc1ccccc1Cc1ccccc1)NCCCN1CCOCC1` here?
A: 183 µM (active)

Q: With `COC(=O)c1ncccc1OCCOc1ccc(Cl)cc1Cl` as the compound, how does the EC50 [7] read?
A: > 50 µM (inactive)

Q: Which EC50 [8] does the source give for `O=C(COc1ccc(Cl)cc1)Nc1nnc(-c2ccc(F)cc2)o1` here?
A: 1.8 µM (active)

Q: Which results are given for `CC(/C=N/n1c(S)nnc1-c1ccco1)=C\c1ccco1`?
A: IC50 [9]: > 100 µM (inactive); IC50 [10]: 2.62 µM (active)

Q: Which results are given for `Cc1cc(NC2CCCCC2)nc(NCc2ccccc2)n1`?
A: IC50 (cells): 10.7 µM (active); CC50 [11]: 12.9 µM (active); CC50 [12]: 16.1 µM (active); EC50 [13]: 1.61 µM (active); AC50 (INS1): 2.83 µM (active); CC50 [14]: > 20 µM (active); EC50 [15]: 8.62 µM (active)

Reference: ChEMBL document CHEMBL1201862, “PubChem BioAssay data set” (2004)
